Measured values from patent publication US12077503B2, “Substituted cyclic amides and their use as herbicides” (FMC CORPORATION, priority 2015, dated 2024).

Columns and labels:
Type in all cases: in vivo
[1] = tested on: giant foxtail (Setaria faberii); experiment: Test A postemergence
Procedure, shortened: (§1)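 Visual injury scores from 0, no effect, to 100, complete control, were assigned versus untreated controls roughly 10 d after treatment in the greenhouse. Test chemicals, formulated with surfactant in a non-phytotoxic solvent, were applied to planted seeds as a preemergence soil spray or postemergence to one- to two-leaf plants 2 to 10 cm tall, in loam–sand soil.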

corn (Zea mays) [2] = experiment: Test A postemergence
Procedure, shortened: as §1

[3] = tested on: velvetleaf (Abutilon theophrasti); experiment: Test A postemergence
Procedure, shortened: as §1

[4] = tested on: crabgrass, large (Digitaria sanguinalis); experiment: Test A postemergence
Procedure, shortened: as §1

[5] = tested on: morningglory (Ipomoea spp.); experiment: Test A postemergence
Procedure, shortened: as §1

[6] = tested on: barnyardgrass (Echinochloa crus-galli); experiment: Test A postemergence
Procedure, shortened: as §1

[7] = tested on: wheat (Triticum aestivum); experiment: Test A postemergence
Procedure, shortened: as §1

[8] = tested on: pigweed (Amaranthus retroflexus); experiment: Test A postemergence
Procedure, shortened: as §1

[9] = tested on: giant foxtail (Setaria faberii); experiment: Test A preemergence; conditions: for Plant response rating, Foxtail, Giant: 125 g ai/ha, preemergence, 0 to 100 scale (0 no effect, 100 complete control); for Foxtail, Giant plant response rating (0 to 100 scale): Preemergence, 500 g ai/ha, 0 is no effect, 100 is complete control
Procedure, shortened: as §1

corn (Zea mays) [10] = experiment: Test A preemergence; conditions: for Plant response rating, Corn: 125 g ai/ha, preemergence, 0 to 100 scale (0 no effect, 100 complete control); for Corn plant response rating (0 to 100 scale): Preemergence, 500 g ai/ha, 0 is no effect, 100 is complete control
Procedure, shortened: as §1

[11] = tested on: velvetleaf (Abutilon theophrasti); experiment: Test A preemergence; conditions: for Plant response rating, Velvetleaf: 125 g ai/ha, preemergence, 0 to 100 scale (0 no effect, 100 complete control); for Velvetleaf plant response rating (0 to 100 scale): Preemergence, 500 g ai/ha, 0 is no effect, 100 is complete control
Procedure, shortened: as §1

[12] = tested on: crabgrass, large (Digitaria sanguinalis); experiment: Test A preemergence; conditions: for Plant response rating, Crabgrass, Large: 125 g ai/ha, preemergence, 0 to 100 scale (0 no effect, 100 complete control); for Crabgrass, Large plant response rating (0 to 100 scale): Preemergence, 500 g ai/ha, 0 is no effect, 100 is complete control
Procedure, shortened: as §1

[13] = tested on: morningglory (Ipomoea spp.); experiment: Test A preemergence; conditions: for Plant response rating, Morningglory: 125 g ai/ha, preemergence, 0 to 100 scale (0 no effect, 100 complete control); for Morningglory plant response rating (0 to 100 scale): Preemergence, 500 g ai/ha, 0 is no effect, 100 is complete control
Procedure, shortened: as §1

[14] = tested on: barnyardgrass (Echinochloa crus-galli); experiment: Test A preemergence; conditions: for Plant response rating, Barnyardgrass: 125 g ai/ha, preemergence, 0 to 100 scale (0 no effect, 100 complete control); for Barnyardgrass plant response rating (0 to 100 scale): Preemergence, 500 g ai/ha, 0 is no effect, 100 is complete control
Procedure, shortened: as §1

[15] = tested on: wheat (Triticum aestivum); experiment: Test A preemergence; conditions: for Plant response rating, Wheat: 125 g ai/ha, preemergence, 0 to 100 scale (0 no effect, 100 complete control); for Wheat plant response rating (0 to 100 scale): Preemergence, 500 g ai/ha, 0 is no effect, 100 is complete control
Procedure, shortened: as §1

[16] = tested on: pigweed (Amaranthus retroflexus); experiment: Test A preemergence; conditions: for Plant response rating, Pigweed: 125 g ai/ha, preemergence, 0 to 100 scale (0 no effect, 100 complete control); for Pigweed plant response rating (0 to 100 scale): Preemergence, 500 g ai/ha, 0 is no effect, 100 is complete control
rice (Oryza sativa) = experiment: Test C flooded paddy test; conditions: Flood, 0 is no effect, 100 is complete control
Procedure, shortened: (§2)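 Compound was added directly to paddy water held 3 cm above the soil, with plants at the 2-leaf stage. Injury was scored visually versus untreated controls after 13–15 d greenhouse growth, using a 0–100 scale where 100 means complete control.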

[17] = tested on: barnyardgrass (Echinochloa crus-galli); experiment: Test C flooded paddy test; conditions: Flood, 0 is no effect, 100 is complete control
Procedure, shortened: as §2

[18] = tested on: sedge, umbrella (small-flower umbrella sedge, Cyperus difformis); experiment: Test C flooded paddy test; conditions: Flood, 0 is no effect, 100 is complete control
Procedure, shortened: as §2

[19] = tested on: ducksalad (Heteranthera limosa); experiment: Test C flooded paddy test; conditions: Flood, 0 is no effect, 100 is complete control
Procedure, shortened: as §2

[20] = 500 g ai/ha, postemergence, 0 to 100 scale, 0 no effect, 100 complete control
[21] = Postemergence, 125 g ai/ha, visual injury, 0 to 100 scale (0 no effect, 100 complete control), approx. 10 d

O=C1NCC(c2ccoc2)C1C(=O)Nc1ccccc1C(F)(F)F (racemic) [Compound 364]
0: Plant response rating, Foxtail, Giant [1, 20] | Plant response rating, Foxtail, Giant [1, 21] | Plant response rating, Corn (corn (Zea mays) [2]; [20]) | Plant response rating, Corn (corn (Zea mays) [2]; [21]) | Plant response rating, Velvetleaf [3, 20] | Plant response rating, Crabgrass, Large [4, 20] | Plant response rating, Crabgrass, Large [4, 21] | Plant response rating, Morningglory [5, 20] | Plant response rating, Morningglory [5, 21] | Plant response rating, Barnyardgrass [6, 20] | Plant response rating, Barnyardgrass [6, 21] | Plant response rating, Wheat [7, 20] | Plant response rating, Wheat [7, 21] | Plant response rating, Pigweed [8, 20] | Plant response rating, Pigweed [8, 21] | Plant response rating, Foxtail, Giant [9] | Foxtail, Giant plant response rating (0 to 100 scale) [9] | Plant response rating, Corn (corn (Zea mays) [10]) | Corn plant response rating (0 to 100 scale) (corn (Zea mays) [10]) | Plant response rating, Velvetleaf [11] | Velvetleaf plant response rating (0 to 100 scale) [11] | Plant response rating, Crabgrass, Large [12] | Crabgrass, Large plant response rating (0 to 100 scale) [12] | Plant response rating, Morningglory [13] | Morningglory plant response rating (0 to 100 scale) [13] | Plant response rating, Barnyardgrass [14] | Barnyardgrass plant response rating (0 to 100 scale) [14] | Plant response rating, Wheat [15] | Wheat plant response rating (0 to 100 scale) [15] | Plant response rating, Pigweed [16] | Pigweed plant response rating (0 to 100 scale) [16] | Plant response rating (scale of 0 to 100), Rice (rice (Oryza sativa); 31 g ai/ha) | Plant response rating (scale of 0 to 100), Rice (rice (Oryza sativa); 62 g ai/ha) | Plant response rating (scale of 0 to 100), Rice (rice (Oryza sativa); 125 g ai/ha) | Plant response rating (scale of 0 to 100), Rice (rice (Oryza sativa); 250 g ai/ha) | Plant response rating (scale of 0 to 100), Barnyardgrass ([17]; 31 g ai/ha) | Plant response rating (scale of 0 to 100), Barnyardgrass ([17]; 62 g ai/ha) | Plant response rating (scale of 0 to 100), Barnyardgrass ([17]; 125 g ai/ha) | Plant response rating (scale of 0 to 100), Barnyardgrass ([17]; 250 g ai/ha) | Plant response rating (scale of 0 to 100), Sedge, Umbrella ([18]; 31 g ai/ha) | Plant response rating (scale of 0 to 100), Sedge, Umbrella ([18]; 62 g ai/ha) | Plant response rating (scale of 0 to 100), Sedge, Umbrella ([18]; 125 g ai/ha) | Plant response rating (scale of 0 to 100), Sedge, Umbrella ([18]; 250 g ai/ha) | Plant response rating (scale of 0 to 100), Ducksalad ([19]; 31 g ai/ha) | Plant response rating (scale of 0 to 100), Ducksalad ([19]; 62 g ai/ha) | Plant response rating (scale of 0 to 100), Ducksalad ([19]; 125 g ai/ha) | Plant response rating (scale of 0 to 100), Ducksalad ([19]; 250 g ai/ha)

O=C1NCC(c2ccoc2)C1C(=O)Nc1ccccc1F (racemic) [Compound 356]
0: Plant response rating, Foxtail, Giant [1, 20] | Plant response rating, Foxtail, Giant [1, 21] | Plant response rating, Corn (corn (Zea mays) [2]; [20]) | Plant response rating, Corn (corn (Zea mays) [2]; [21]) | Plant response rating, Velvetleaf [3, 20] | Plant response rating, Velvetleaf [3, 21] | Plant response rating, Crabgrass, Large [4, 20] | Plant response rating, Crabgrass, Large [4, 21] | Plant response rating, Morningglory [5, 20] | Plant response rating, Morningglory [5, 21] | Plant response rating, Barnyardgrass [6, 20] | Plant response rating, Barnyardgrass [6, 21] | Plant response rating, Wheat [7, 20] | Plant response rating, Wheat [7, 21] | Plant response rating, Pigweed [8, 20] | Plant response rating, Pigweed [8, 21] | Plant response rating, Foxtail, Giant [9] | Foxtail, Giant plant response rating (0 to 100 scale) [9] | Plant response rating, Corn (corn (Zea mays) [10]) | Corn plant response rating (0 to 100 scale) (corn (Zea mays) [10]) | Plant response rating, Velvetleaf [11] | Velvetleaf plant response rating (0 to 100 scale) [11] | Plant response rating, Crabgrass, Large [12] | Crabgrass, Large plant response rating (0 to 100 scale) [12] | Plant response rating, Morningglory [13] | Morningglory plant response rating (0 to 100 scale) [13] | Plant response rating, Barnyardgrass [14] | Barnyardgrass plant response rating (0 to 100 scale) [14] | Plant response rating, Wheat [15] | Wheat plant response rating (0 to 100 scale) [15] | Plant response rating, Pigweed [16] | Pigweed plant response rating (0 to 100 scale) [16] | Plant response rating (scale of 0 to 100), Rice (rice (Oryza sativa); 62 g ai/ha) | Plant response rating (scale of 0 to 100), Rice (rice (Oryza sativa); 250 g ai/ha) | Plant response rating (scale of 0 to 100), Barnyardgrass ([17]; 62 g ai/ha) | Plant response rating (scale of 0 to 100), Barnyardgrass ([17]; 250 g ai/ha) | Plant response rating (scale of 0 to 100), Sedge, Umbrella ([18]; 62 g ai/ha) | Plant response rating (scale of 0 to 100), Sedge, Umbrella ([18]; 250 g ai/ha) | Plant response rating (scale of 0 to 100), Ducksalad ([19]; 62 g ai/ha) | Plant response rating (scale of 0 to 100), Ducksalad ([19]; 250 g ai/ha)
